Among the test systems are MDA-MB-231 breast; CAKI-1 renal; CCRF-CEM leukemia; A549 NSCLC; HOP-92 NSCLC; SR leukemia; MDA-MB-435; MOLT-4 leukemia; HCT-116 colon; OVCAR-8 ovarian.
Common to all, as to assay: NCI anticancer screen, dose series, 48 h

Here are results for ten molecules from PubChem BioAssay (NCI).

Where “and” joins values, the source holds several entries; their conditions need not be identical. Equal entries are not always repeated.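 Assay format: 96-well plates, 48-hour exposure. At the GI50, growth is halved. TGI marks complete inhibition of growth.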

For the molecule `CCCCS(=N)(=O)CC[C@H](N)C(=O)O` (some centres undefined), the GI50 is above 10000 µM with MDA-MB-231 breast; above 1080 µM in the experiment with CAKI-1 renal; 302 µM in the experiment on CCRF-CEM leukemia; above 8030 µM with A549 NSCLC; 945 µM with HOP-92 NSCLC; 3980 µM in the experiment on SR leukemia. Also, the results for the GI50 with MDA-MB-435, in the experiment with MOLT-4 leukemia and in the experiment on HCT-116 colon were above 10000 µM, 1540 µM and above 9060 µM, respectively. In addition, the TGI is above 10000 µM in the experiment on MDA-MB-231 breast; 5000 µM and > 1330 µM in the experiment on CAKI-1 renal; 2790 µM and 2140 µM in the experiment on CCRF-CEM leukemia; above 10000 µM in the experiment with A549 NSCLC; 5000 µM and > 10000 µM in the experiment on SR leukemia; above 10000 µM with MDA-MB-435. For the same molecule, the TGI with MOLT-4 leukemia was 3810 µM and > 10000 µM; in the experiment with HCT-116 colon, above 10000 µM; in the experiment on OVCAR-8 ovarian, 2920 µM and > 2770 µM.

In the case of `Cn1c2ccccc2n2c3nc4ccccc4nc3c(C#N)c12`, the TGI in the experiment with MDA-MB-231 breast, in the experiment on CAKI-1 renal, in the experiment with CCRF-CEM leukemia, with A549 NSCLC, in the experiment on HOP-92 NSCLC and in the experiment on SR leukemia was above 100 µM in each case. Further, the TGI with MDA-MB-435, in the experiment on MOLT-4 leukemia, with HCT-116 colon and with OVCAR-8 ovarian was above 100 µM throughout.

Take `O=[N+]([O-])/C=C\c1ccc2c(c1)OCO2`: the GI50 was 12.1 µM in the experiment with MDA-MB-231 breast; 1.69 µM with CAKI-1 renal; 3.9 µM with CCRF-CEM leukemia; 2.34 µM in the experiment on A549 NSCLC; 12.5 µM in the experiment with HOP-92 NSCLC; 2.73 µM with SR leukemia. For the same molecule, the GI50 was 2.16 µM with MDA-MB-435, 17.6 µM in the experiment on MOLT-4 leukemia, 1.42 µM in the experiment with HCT-116 colon and 2.86 µM with OVCAR-8 ovarian. For the same molecule, the TGI in the experiment with MDA-MB-231 breast came out at 27.5 µM; in the experiment with CAKI-1 renal, 7.36 µM; in the experiment with CCRF-CEM leukemia, 25 µM; in the experiment on A549 NSCLC, 5.23 µM; in the experiment with HOP-92 NSCLC, 30.9 µM; in the experiment on SR leukemia, 8.06 µM. For the same molecule, the figures for the TGI with MOLT-4 leukemia, in the experiment with HCT-116 colon and with OVCAR-8 ovarian were 67.7 µM, 2.95 µM and 10.4 µM, respectively.

In the case of `O=S(=O)(O)c1ccc2cc(N=Nc3cc(S(=O)(=O)O)c4cccnc4c3O)ccc2c1`, the TGI in the experiment on MDA-MB-231 breast, in the experiment with CAKI-1 renal, in the experiment with CCRF-CEM leukemia, in the experiment with A549 NSCLC, with HOP-92 NSCLC and in the experiment with SR leukemia was above 100 µM in each case. Also, the TGI in the experiment with MDA-MB-435, with MOLT-4 leukemia, in the experiment on HCT-116 colon and in the experiment on OVCAR-8 ovarian was above 100 µM throughout.

`O=C(O)C(Cc1ccc(O)c([N+](=O)[O-])c1)N1C(=O)c2ccccc2C1=O` (centres undefined): the TGI in the experiment on MDA-MB-231 breast, with CAKI-1 renal, with CCRF-CEM leukemia, with A549 NSCLC, with HOP-92 NSCLC and in the experiment on SR leukemia was above 100 µM each time. Further, the TGI with MDA-MB-435, in the experiment with MOLT-4 leukemia, in the experiment with HCT-116 colon and with OVCAR-8 ovarian was above 100 µM each time.

For `CCC(=O)N1C/C(=C/c2ccc(OC)cc2)C(=O)/C(=C/c2ccc(OC)cc2)C1`, the GI50 in the experiment with MDA-MB-231 breast was 1.98 µM; in the experiment on CAKI-1 renal, 2.74 µM; with CCRF-CEM leukemia, 1.75 µM; with HOP-92 NSCLC, 2.11 µM; with SR leukemia, 0.382 µM; with MDA-MB-435, 1.23 µM. Moreover, the GI50 was 3.31 µM in the experiment on MOLT-4 leukemia, 0.263 µM in the experiment with HCT-116 colon and 2.86 µM in the experiment on OVCAR-8 ovarian. Also, the TGI with MDA-MB-231 breast was 4.28 µM; in the experiment on CAKI-1 renal, 9.73 µM; in the experiment with CCRF-CEM leukemia it was 8.31 µM; in the experiment on HOP-92 NSCLC, 7.77 µM; with SR leukemia, above 100 µM; with MDA-MB-435, 4.42 µM. Also, the TGI was above 100 µM in the experiment on MOLT-4 leukemia, 0.646 µM in the experiment on HCT-116 colon and above 100 µM with OVCAR-8 ovarian.

As to `COC1C(=O)CCC2(CO2)C1(O)C1(C)OC1CCC(C)C` (centres undefined), the TGI in the experiment on MDA-MB-231 breast, with CAKI-1 renal, in the experiment with CCRF-CEM leukemia, with HOP-92 NSCLC, with SR leukemia and in the experiment on MDA-MB-435 was above 100 µM throughout. The TGI in the experiment with MOLT-4 leukemia, with HCT-116 colon and in the experiment on OVCAR-8 ovarian was above 100 µM each time.

For the molecule `CC[C@@]1(OC(=O)CCC(=O)O)C(=O)OCc2c1cc1n(c2=O)Cc2cc3ccccc3nc2-1`, the TGI in the experiment on MDA-MB-231 breast was above 27.6 µM; in the experiment with CAKI-1 renal it was 0.612 µM; in the experiment with CCRF-CEM leukemia it was 0.127 µM; in the experiment on A549 NSCLC it was 5.54 µM; in the experiment with HOP-92 NSCLC it was 6.08 µM; in the experiment with SR leukemia it was 0.03 µM. The TGI amounted to 3.22 µM with MDA-MB-435, 0.163 µM in the experiment with MOLT-4 leukemia and 9.38 µM in the experiment on OVCAR-8 ovarian.

As for `OCC1OC(N2C=C(c3nc4ccccc4s3)C3C=CC=CC32)C(O)C1O` (centres undefined), the GI50 is 11.3 µM in the experiment with MDA-MB-231 breast; 9.32 µM in the experiment with CAKI-1 renal; 12.7 µM in the experiment with A549 NSCLC; 6.62 µM with HOP-92 NSCLC; 2.34 µM with SR leukemia; 12 µM in the experiment with MDA-MB-435. In addition, the GI50 was above 50 µM in the experiment on MOLT-4 leukemia, 5.21 µM in the experiment with HCT-116 colon and 11.4 µM with OVCAR-8 ovarian. For the same molecule, the TGI in the experiment with MDA-MB-231 breast was 30.2 µM; in the experiment with CAKI-1 renal, 22 µM; with A549 NSCLC, 41.2 µM; with HOP-92 NSCLC, 20.5 µM; in the experiment on SR leukemia it was above 50 µM; in the experiment with MDA-MB-435, 24.5 µM. In addition, the TGI in the experiment with MOLT-4 leukemia is above 50 µM; in the experiment on HCT-116 colon, above 50 µM; in the experiment on OVCAR-8 ovarian, 29.5 µM.

Consider `N#CC1C(N)=NNC1c1ccc(-c2ccc(-c3nc4ccccc4o3)cc2)o1` (centres undefined), for which the GI50 in the experiment on MDA-MB-231 breast was 15.3 µM; in the experiment on CAKI-1 renal, 14.8 µM; with A549 NSCLC, 32.3 µM; in the experiment on HOP-92 NSCLC, 18.2 µM; with SR leukemia, above 100 µM; with MDA-MB-435, 36.4 µM. Also, the GI50 was above 100 µM with MOLT-4 leukemia, 5.91 µM with HCT-116 colon and 15.3 µM with OVCAR-8 ovarian. Further, the TGI was 65.8 µM in the experiment on MDA-MB-231 breast; 44.2 µM in the experiment on CAKI-1 renal; above 100 µM with A549 NSCLC; above 100 µM with HOP-92 NSCLC; above 100 µM in the experiment on SR leukemia; above 100 µM with MDA-MB-435. In addition, the TGI with MOLT-4 leukemia is above 100 µM; in the experiment with HCT-116 colon, above 100 µM; with OVCAR-8 ovarian it was 88 µM.
